≈ marks a conversion by molar mass, not a printed value. Blank lines part the entries; values can stand above or below the compound they belong to.
Columns and labels:
[1] = tested on: dopamine oxidation accelerated in the presence of Fe^3+; assay: Suppression test of dopamine oxidation accelerated in presence of iron ions; format: biochemical; conditions: dopamine 2 mmol/L, Fe^3+ 2 mmol/L, hydrogen peroxide 1 moL/L, 0.2 M phosphate buffer pH 6.5, 25° C., 6 to 9 hours
Protocol: For a test, dopamine hydrochloride (DA·HCl), iron(III) nitrate 9-hydrate (Fe(NO3)3·9H2O) as Fe^3+ source, hydrogen peroxide solution as oxidant, glutathione trisulfide 2-hydrate, lipoic acid trisulfide, pantethine trisulfide, or N,N′-diacetyl-L-cysteine trisulfide as trisulfide compound were used.
A method of preparing each substance is as follows. • 10 mM DA-HCl aqueous solution: prepared by dissolving DA·HCl in purified water. • 20 mM Fe^3+ solution: prepared by dissolving Fe(NO3)3·9H2O in 5 mmol/L H2SO4. • 40 mM glutathione trisulfide solution: prepared by dissolving glutathione trisulfide 2-hydrate in 0.2 mol/L phosphate buffer solution (pH=6.5). • 40 mM lipoic acid trisulfide solution: prepared by dissolving lipoic acid trisulfide in 0.2 mol/L phosphate buffer solution (pH=6.5). • 400 mM pantethine trisulfide solution: prepared by dissolving pantethine trisulfide in 0.2 mol/L phosphate buffer solution (pH==6.5). • 40 mM N,N′-diacetyl-L-cysteine trisulfide: prepared by dissolving N,N′-diacetyl-L-cysteine trisulfide in 0.2 mol/L phosphate buffer solution (pH=6.5).
The pre-prepared preparation solution of each substance (mentioned above) and 0.2 M phosphate buffer solution (pH=6.5) were mixed in a 50 mL or 5 mL test tube to prepare 20 mL or 2 mL reaction solution so that each substance has the following concentration in the reaction solution. • Dopamine: 2 mmol/L • Fe^3+: 2 mmol/L • Hydrogen peroxide: 1 moL/L • Glutathione trisulfide: 3 concentrations (5, 10 or 20 mmol/L) • Lipoic acid trisulfide: 2 concentrations (10 or 20 mmol/L) • Pantethine trisulfide: 3 concentrations (100, 150 or 200 mmol/L) • N,N′-diacetyl-L-cysteine trisulfide: 3 concentrations (5, 10 or 20 mmol/L)
The reaction solution was stirred at 25° C., 500 rpm for 6 to 9 hours. The dopamine concentration in the reaction solution was quantified with high performance liquid chromatography (HPLC).
The conditions for HPLC is as follows. • Detector: Ultraviolet absorptiometer (measuring wavelength: 280 nm) • Column: Inertsil ODS-2 (4.6 mm I.D.×150 mm, 5 μm) • Column temperature: constant temperature around 35° C. • Mobile phase: prepared by adding 0.2 mol/L citric acid aqueous solution to 0.2 mol/L disodium hydrogenphosphate aqueous solution to adjust to pH 3.0. • Flow rate: 0.7 mL/min • Amount infused: 20 μL • Area measurement range: for 30 minutes after infusion of sample solution Preparation of sample solution: prepared by diluting 100 μL reaction solution 10-fold with water to form sample solution • Retention time: Dopamine (DA) approximately 7 minutes

[2] = Solubility in water at 20° C.; format: physicochemical; conditions: free lipoic acid trisulfide

Structure (SMILES): O=C(O)CCCCC1CCSSS1 (racemic) [lipoic acid trisulfide]
suppression of dopamine oxidation in the presence of Fe^3+ (dopamine concentration by HPLC, FIG. 2) ([1]; lipoic acid trisulfide 10 or 20 mmol/L): suppressed the dopamine oxidation

Structure (SMILES): N[C@@H](CCC(=O)N[C@@H](CSSSC[C@H](NC(=O)CC[C@H](N)C(=O)O)C(=O)NCC(=O)O)C(=O)NCC(=O)O)C(=O)O [Glutathione trisulfide, glutathione trisulfide]
suppression of dopamine oxidation in the presence of Fe^3+ (dopamine concentration by HPLC, FIG. 1) ([1]; glutathione trisulfide 5, 10 or 20 mmol/L): suppressed the dopamine oxidation

solubility [2]: 300 µg/mL (≈ 1260 µM)
Structure (SMILES): O=C(O)CCCC[C@@H]1CCSSS1 [Lipoic acid trisulfide R body, (R)-lipoic acid trisulfide]

Structure (SMILES): CC(=O)N[C@@H](CSSSC[C@H](NC(C)=O)C(=O)O)C(=O)O [N,N′-diacetyl-L-cysteine trisulfide]
suppression of dopamine oxidation in the presence of Fe^3+ (dopamine concentration by HPLC, FIG. 4) ([1]; N,N′-diacetyl-L-cysteine trisulfide 5, 10 or 20 mmol/L): suppressed the dopamine oxidation

Structure (SMILES): CC(C)(CO)[C@@H](O)C(=O)NCCC(=O)NCCSSSCCNC(=O)CCNC(=O)[C@H](O)C(C)(C)CO [pantethine trisulfide]
suppression of dopamine oxidation in the presence of Fe^3+ (dopamine concentration by HPLC, FIG. 3) ([1]; pantethine trisulfide 100, 150 or 200 mmol/L): suppressed the dopamine oxidation
